Results from patent publication US20210169911A1, “PURINE AND PYRIMIDINE NUCLEOTIDES AS ECTO-5'-NUCLEOTIDASE INHIBITORS” (The United States of America,as represented by the …, priority 2018, published 2021).
Counter-ions that a name gives are not always drawn. Like-named read-outs stand apart in the source and are kept apart here.

Experiments:
[1] = test system: recombinant soluble human CD73; test: Radiometric CD73 inhibition assay, recombinant soluble human CD73; assay type: biochemical; conditions: human vs rat CD73 Ki, Table 5
Procedure: (§1) The cDNA for the soluble human CD73 (Genbank accession no. NM_002526) was obtained from Prof. Dr. Norbert Sträter (University of Leipzig, Germany) (3). […] Sf9 insect cells were grown in Insect-[…] media (#: BE12-[…], Lonza, Switzerland) with 10 mg/l gentamicin and split at a ratio of 1:3 every fourth day. For transfection, cells were seeded into cell culture flasks (25 cm^2) at 60-70% confluence. 100 μl of cell medium and 1 μl of the vector DNA (1000 ng/μ1) were mixed with 2.5 μl of baculovirus genomic ProEasyTM vector DNA (AB vector, CA, USA) and combined with premixed 100 μl of cell medium and 8 μl of CellfectinTM II Reagent (Thermo Fisher Scientific, MA, USA). […] The cells were incubated for 30 min at rt, and for further 4 days at 27° C. Cells from the transfection procedure were detached from the bottom of the flasks and centrifuged for 5 min at 2000 g. 1.5 ml of the supernatant (viral stock) was added to 75 cm^2 cell culture flasks containing Sf9 cells (60-70% confluence), and the cells were incubated for four days at 27° C. Then 1.5 ml of the supernatant were taken and added to uninfected Sf9 cells in a 75 cm^2 flask. This was repeated five more times, using more cells and larger flasks after the third round of infections (150 cm^2 to which 3.0 ml of supernatant were added). The stock P8 was finally used for infection of the cells. For protein expression, 3 ml of the virus solution were used to infect 150 ml of cell media containing 2×10^6 cells/ml in a 500 ml Erlenmeyer flask, and they were incubated for 4 days at 27° C. with shaking (150 rpm). Then, cell suspensions were transferred to 50 ml falcon tubes and centrifuged at 15 min at 5000 g at 4° C. The supernatants were subjected to ultrafiltration using Amicon® Ultra-15, 10 kDa cut-off (Merck Millipore, MA, USA) at 5000 g for 15-30 min at 4° C. The concentrated protein was purified with HisPurTM Ni^2+-NTA spin columns (#: 88226, Thermo Fisher Scientific, MA, USA). The elution of the columns was performed as recommended in the instruction manual with adjusting the incubation time for protein binding to 1 h at 4° C. with an end-over-end mixer and an additional incubation step of 5 min with the elution buffer before eluting. Eluates were pooled and dialyzed (Membra-Cer, 14 kDa cut-off, 250 mm×44 mm×0.02 mm; Carl Roth, Germany) at 4° C. in 25 mM Tris, pH 7.4, with a volume adjusted to 40 times the volume of the elution fraction. […] The enzyme was aliquoted and stored at -80° C. until use.

[2] = target: T1, recombinant soluble human CD73 (Homo sapiens, UniProt P21589); test: as above; assay type: biochemical; conditions: Table 6; for Ki: human soluble CD73, read-out: Ki at hCD73
T1 construct: 6xHis (C); secretion signal peptide of vector pACGP67B (N); made in house; host or cells: Sf9 insect cells (baculovirus)
T1 sequence (P21589 28-549): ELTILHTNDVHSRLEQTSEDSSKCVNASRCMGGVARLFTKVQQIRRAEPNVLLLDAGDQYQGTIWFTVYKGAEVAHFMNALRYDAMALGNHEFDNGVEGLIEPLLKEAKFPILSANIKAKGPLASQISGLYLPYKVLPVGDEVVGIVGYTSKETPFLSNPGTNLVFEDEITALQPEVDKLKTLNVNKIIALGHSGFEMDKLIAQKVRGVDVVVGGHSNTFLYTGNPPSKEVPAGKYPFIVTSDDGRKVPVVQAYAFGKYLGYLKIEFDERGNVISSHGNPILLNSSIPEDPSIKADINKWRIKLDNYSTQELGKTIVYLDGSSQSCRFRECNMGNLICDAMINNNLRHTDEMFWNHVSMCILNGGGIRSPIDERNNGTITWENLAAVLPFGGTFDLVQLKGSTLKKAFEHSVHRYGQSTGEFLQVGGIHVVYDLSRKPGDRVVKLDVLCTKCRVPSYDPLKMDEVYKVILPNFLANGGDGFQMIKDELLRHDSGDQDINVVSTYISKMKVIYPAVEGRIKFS
Procedure: as §1

[3] = Stability in aqueous solution; assay type: physicochemical; conditions: decomposes to UOPCP (4a)
Procedure: Cytidine derivatives varying at the 2′-position (7a and 7b), as well as at the 5-position (7c-e), were prepared as depicted in Scheme 2. […] The required nucleosides were prepared by either reacting cytidine (6a), 2′-deoxycytidine (6b), 5-fluorocytidine (6d) or 5-methylcytidine (6e) with respective alkoxyamino derivatives in pyridine^8 followed by phosphonylation reaction to afford compounds 9a-f, or by reacting cytidine (6a) with benzyloxyamine, followed by nucleophilic substitution at the 3-position and subsequent 5′-O-phosphonylation of the nucleosides to afford compounds 9h and 9i (Scheme 2). Furthermore, 3-deazauridine-5′-α,β-methylene-diphosphate (10), (S)-methanocarba-5′-α,β-methylene-diphosphate (11) and the ethyl ester of 2-thio-UDP (12) (7) were prepared to extend the exploration of SARs of the nucleotide analogs as CD73 inhibitors. All phosphonate-substituted nucleotides were purified to homogeneity by ion exchange chromatography followed by reverse phase C18 HPLC.

[4] = target: T2, recombinant soluble rat CD73 (Rattus norvegicus, UniProt P21588); test: Radiometric rat ecto-5′-nucleotidase (CD73) assay with [3H]AMP; conditions: for % inhibition at indicated concentration, rat CD73: initial screening concentration 1 μM
T2 sequence (P21588 29-551 limits assumed): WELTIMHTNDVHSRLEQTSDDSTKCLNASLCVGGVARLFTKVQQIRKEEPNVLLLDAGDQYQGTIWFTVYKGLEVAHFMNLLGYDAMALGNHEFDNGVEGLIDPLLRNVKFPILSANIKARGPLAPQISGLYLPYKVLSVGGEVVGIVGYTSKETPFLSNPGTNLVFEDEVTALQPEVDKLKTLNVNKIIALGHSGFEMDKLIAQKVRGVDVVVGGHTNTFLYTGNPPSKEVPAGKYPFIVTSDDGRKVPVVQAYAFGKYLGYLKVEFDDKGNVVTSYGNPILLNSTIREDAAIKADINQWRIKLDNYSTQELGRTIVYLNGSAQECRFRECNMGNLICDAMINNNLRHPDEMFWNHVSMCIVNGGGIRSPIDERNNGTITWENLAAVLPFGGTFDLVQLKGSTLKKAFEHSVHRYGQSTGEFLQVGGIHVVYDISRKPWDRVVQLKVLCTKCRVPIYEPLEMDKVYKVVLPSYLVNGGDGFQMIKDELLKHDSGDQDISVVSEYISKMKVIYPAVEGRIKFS
Procedure: After the enzymatic reaction, the substrate was separated from its product [2,8-^3H]adenosine by precipitation with lanthanum chloride followed by filtration through glass fiber filters (34). […] Ki values were calculated from the obtained IC50 values using the Cheng-Prusoff equation (6,7).
The assay was performed as previously described (41) using recombinant rat CD73 expressed in Sf9 insect cells (33). […] The mixture was incubated for 25 min at 37° C. The reaction was stopped by adding 500 μL of ice-cooled precipitation buffer containing 100 mM aqueous lanthanum chloride and 100 mM aqueous sodium acetate solution (pH 4.0). After 30 min, the precipitation was filtered through GF/B glass fiber filters (M-48, Brandel, Gaithersburg, Md., USA). After washing three times, 4 mL of the scintillation cocktail ULTIMA Gold XR was added and then quantified by scintillation counting (TRICARB 2900 TR, Packard/PerkinElmer). Three separate inhibition assays were performed in triplicate, concentration-response curves were fitted, and Ki values were calculated.
The assay was performed essentially as previously described.^D Stock solutions (10 mM) of the compounds were prepared in demineralized water and further dilutions were performed in assay reaction buffer (25 mM Tris, 140 mM sodium chloride, 25 mM sodium dihydrogen phosphate, pH 7.4). 10 μL of the inhibitor solution were added to 70 μL of assay reaction buffer. […] The enzymatic reaction was performed for 25 min at 37° C. in a shaking water bath. […] After the precipitation was completed (after at least 30 min on ice), the mixture was separated by filtration through GF/B glass fiber filters using a cell harvester (M-48, Brandel, Gaitherburg, Md., USA). After washing each reaction vial three times with 400 μl of cold (4° C.) demineralized water, 5 ml of the scintillation cocktail (ULTIMA Gold XR, PerkinElmer, MA, USA) was added and radioactivity was measured by scintillation counting (TRICARB 2900 TR, Packard/PerkinElmer; counting efficacy: 49-52%). Two controls were included and measured as duplicates. One reaction was performed without the inhibitor resulting in 100% enzyme activity (positive control) and one was incubated without the inhibitor and the enzyme and served as background control. The resulting data were subtracted from the background and were normalized with to the positive control. The results were plotted, and concentration-inhibition curves were fitted with GraphPad Prism 5 (GraphPad Software, La Jolla, USA).
After 30 min, the precipitation was filtered through GF/B glass fiber filters (M-48, Brandel, Gaithersburg, Md., USA). After washing three times, 4 mL of the scintillation cocktail ULTIMA Gold XR was added and then quantified by scintillation counting (TRICARB 2900 TR, Packard/PerkinElmer). Three separate inhibition assays were performed in triplicate, concentration-response curves were fitted, and K, values were calculated.

[5] = read-out: Ki ± SEM (nM), rat CD73, Table 3, recombinant soluble rat CD73, 5 μM [3H]AMP

Molecule | Ki [2] [nM] | Ki [4, 5] [nM] | also measured
O=c1[nH]c(=NOCc2ccccc2)c(F)cn1C1OC(COP(=O)(O)CP(=O)(O)O)C(O)C1O (stereo not shown) [Compound 9g, N^4-[O-(4-Benzyloxy)]-5-fluoro-cytidine-5′-O-[(phosphonomethyl)phosphonic acid]] | – | – | potency at human CD73 as compared to the rat enzyme [1]: 5 fold
CCN(CC)CC.CCN(CC)CC.O=c1ccn([C@H]2[C@H](O)[C@H](O)C3(COP(=O)(O)CP(=O)(O)O)C[C@H]23)c(=O)[nH]1 (stereo partly drawn) [Compound 121, (((((2R,3S,4R,5S)-4-(2,4-Dioxo-3,4-dihydropyrimidin-1(2H)-yl)-2,3-dihydroxy-1λ^5-bicyclo[3.1.0]hexan-1-yl)methoxy)(hydroxy)phosphoryl)methyl)phosphonic Acid Triethylammonium Salt] | – | – | inhibition of hCD73 ([2]; at 50 μM): 35% inhibition
O=C(Nc1ccn([C@@H]2O[C@H](COP(=O)(O)CP(=O)(O)O)C(O)C2O)c(=O)n1)c1ccccc1 (stereo partly shown) [Compound 7f, 4-Benzoylcytidine-5′-O-[(phosphonomethyl)phosphonic acid]] | – | – | decomposition in aqueous solution [3]: rapid decomposition; decomposition in aqueous solution ([3]; listed as 71): decomposition in aqueous solution
C#Cc1ccc(CO/N=c2/ccn([C@@H]3O[C@H](COP(=O)(O)CP(=O)(O)O)[C@@H](O)[C@H]3O)c(=O)n2C)cc1 [Compound 114, N^4-(4-Ethynylbenzyloxy)-3-methyleytidine-5′-α,β-methylenediphosphate triethylammonium salt] | 0.664 ± 0.089 | – | –
Nc1nccc2c1ncn2[C@@H]1O[C@H](COP(=O)(O)CP(=O)(O)O)[C@@H](O)[C@H]1O [Compound 2f, 3-Deazaadenosine-5′-O-[(phosphonomethyl)phosphonic acid]] | – | > 1000 | % inhibition at indicated concentration, rat CD73 ([4]; Table 3): 36%
Cn1c(=O)n([C@@H]2O[C@H](COP(=O)(O)CP(=O)(O)O)[C@@H](O)[C@H]2O)cc/c1=N/OCc1ccc(-c2cn(CCF)nn2)cc1 [Compound 120, N^4-(4-(1-(2-Fluoroethyl)-1H-1,2,3-triazol-4-yl)benzyloxy)-3-methylcytidine-5′-α,β-methylenediphosphate triethylammonium salt] | 0.627 ± 0.099 | – | –
Cn1c(=O)n([C@@H]2O[C@H](COP(=O)(O)CP(=O)(O)O)[C@@H](O)[C@H]2O)cc/c1=N/OCc1cccc(Cl)c1 [Compound 106, N^4-(3-Chlorobenzyloxy)-3-methylcytidine-5′-α,β-methylenediphosphate triethylammonium salt] | 1.61 ± 0.09 | – | –
Nc1ncnc2c1ncn2[C@@H]1O[C@H](COP(=O)(O)CP(=O)(O)O)[C@@H](O)[C@H]1O [I, reference compound] | – | 167 ± 53 | –
Cn1c(=O)n([C@@H]2O[C@H](COP(=O)(O)CP(=O)(O)O)[C@@H](O)[C@H]2O)cc/c1=N/OCc1cccc(C(F)(F)F)c1 [Compound 107, N^4-((3-Trifluoromethyl)benzyloxy)-3-methyleytidine-5′-α,β-methylenediphosphate triethylammonium salt] | 1.44 ± 0.09 | – | –
Nc1ncnc2c1ccn2[C@@H]1O[C@H](COP(=O)(O)CP(=O)(O)O)[C@@H](O)[C@H]1O [Compound 2g, 7-Deazaadenosine-5′-O-[(phosphonomethyl)phosphonic acid]] | – | 88.6 ± 4 | –
(((((2R,3S,4R,5S)-4-((Z)-4-(((4-Chlorobenzyl)oxy)imino)-3-methyl-2-oxo-3,4-dihydropyrimidin-1(2H)-yl)-2,3-dihydroxy-1V-bicyclo[3.1.0]hexan-1-yl)methoxy)(hydroxy)phosphoryl)methyl)phosphonic Acid Triethylammonium Salt [Compound 122] | 59.2 ± 5.58 | – | –
Nc1ccnc2c1ncn2[C@@H]1O[C@H](COP(=O)(O)CP(=O)(O)O)[C@@H](O)[C@H]1O [Compound 2e, 1-Deazaadenosine-5′-O-[(phosphonomethyl)phosphonic acid]] | – | > 1000 | % inhibition at indicated concentration, rat CD73 ([4]; Table 3): 36%
CCn1c(=O)n([C@@H]2O[C@H](COP(=O)(O)CP(=O)(O)O)[C@@H](O)[C@H]2O)cc/c1=N/OCc1ccccc1 [Compound 9i, N^4-[O-(4-Benzyloxy)]-3-ethyl-cytidine-5′-O-[(phosphonomethyl)phosphonic acid]] | – | – | Ki [4]: 262 ± 46 nM
